Among the data in BindingDB's records for PubMed 30559935 (University of Nottingham) are IC50 values, retold here.

The nature of test [1]: Inhibition of EZH2 in human EPN8 cells assessed as reduction in cell viability incubated for 120 hrs by MTT assay. Background: Formazan colour is commonly taken as a measure of viable cells.
Test [2] can be described thus: Inhibition of EZH2 in human DKFZ-EP1 cells assessed as reduction in cell viability incubated for 120 hrs by MTT assay.
Test [3] can be described thus: Inhibition of EZH2 in human BXD-1425EPN cells assessed as reduction in cell viability incubated for 120 hrs by MTT assay.

In the case of `CCCc1cc(C)[nH]c(=O)c1CNC(=O)c1cc(-c2ccnc(N3CCN(C)CC3)c2)cc2c1cnn2C(C)C`, the IC50 (commonly the concentration that inhibits the measured activity by half) is 20 µM in test [1], 20 µM in test [2] and 16 µM in test [3].
